Reference: article PMC5453931, “Cathelicidin-trypsin inhibitor loop conjugate represents a promising antibiotic candidate with protease stability” (Scientific Reports, 2017)
Where a SMILES comes first, the peptide text is derived from it. Bridges are numbered along the chain shown (N, C = ends).

How the values were obtained:
trypsin [1] = test: Trypsin inhibition assay (NBLAN hydrolysis, Dixon method); assay type: biochemical; conditions: 50 mM Tris–HCl pH 7.8, trypsin 0.1 mg/mL, 5 min pre-incubation at 37 °C, substrate NBLAN 48, 96, 192 μg/mL, 405 nm
Summary of the method: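 Trypsin (0.1 mg/mL final) pre-incubated 5 min at 37 °C with hybrid peptide at […] final, in 50 mM Tris–HCl, pH 7.8, at room temperature. Reaction started with NBLAN at 48, 96 or 192 μg/mL final; p-nitroaniline monitored continuously at 405 nm. Ki determined by the Dixon method.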

E. coli 08040726 = test: Bacterial killing kinetic assay, colony counting; assay type: cell-based
Procedure: The bacterial killing kinetics of the hybrid peptides against E. coli 08040726 was determined by counting the changes in the viable bacterial clones after peptide treatment. The experiment was carried out according to the method described previously with minor modifications. Fresh colonies of the bacteria were incubated in MH broth at 37 °C for 12 h and diluted to 10^6 CFU/in fresh MH broth. The hybrid peptide was added to the bacterial suspension with a final concentration of 1x and 5x corresponding MICs, and incubated at 37 °C for 0, 10, 20, 30, 45, 60, 90, 120, and 180 mins. At each time point, aliquots (50 μL) were removed and diluted with fresh MH broth for 1000 times. […] of the dilutions were coated on MH agar plates, incubated overnight at 37 °C, and the viable colonies were counted. Ampicillin was used as positive control and sterile deionized water was used as negative control.

[2] = system: established C. albicans biofilm; test: Biofilm disruption assay, established biofilm (XTT, PI/SYBR Green I); assay type: cell-based
Procedure: TIH3F that has the best antifungal activity among the four peptides was chosen to examine the effect on the C. albicans biofilm formation and the established biofilm using previously described method with minor modifications. In the biofilm inhibition assay, after the incubation at 35 °C, C. Albicans was diluted to 1 × 10^6 CFU/mL in RPMI-1640 medium. Then 2 mL culture was added to each well of 6-well plates with coverslips at the bottom, and incubated at 35 °C in a humid chamber for 3 h. Non-adherent cells were then washed away by PBS, and series concentrations of TIH3F (0, 1, 2, 4 μg/mL) were added into the plate, with amphotericin B as control. The formation of the biofilm was determined by the XTT Cell Proliferation and Cytotoxicity Kit (KeyGEN BioTECH, Nanjing, China) after 36-h incubation. In the biofilm disruption assay, the biofilm was preformed as described above but with a longer incubation time up to 72 h. Then TIH3F and amphotericin B of series concentrations (0, 2.5, 5, 10, 25, 50 μg/mL) was added after non-adherent cells were washed out. The measurement of remaining biofilm was then determined. In order to further confirm the antifungal effect of TIH3F against C. albicans encased in biofilms, the established biofilm was treated with TIH3F (0, 5, 50 μg/mL), washed three times with PBS, and finally stained with 1 mL 1000-fold diluted PI/SYBR Green I at 30 °C in the dark for 20 min. After washing with PBS, the plate was immediately photographed with fluorescence microscope.

E. coli = test: pH stability of antimicrobial activity; assay type: physicochemical; conditions: HCl or NaOH solution, 2 mg/mL, 37 °C, 24 h, then 1 × MIC for 2 h, CFU; Fig. 3C
Procedure: Peptide was dissolved in HCl solution or NaOH solution to a final concentration of 2 mg/mL with pH value ranging from 1.0 to 11.0, and incubated at 37 °C for 24 h[64]. […] The diluted aliquots were seeded at MH agar plates and the CFU were scored after 24 h incubation at 37 °C. The number of CFU grown out of MH broth without peptide was served as control.

E. coli ATCC25922 = test: Thermal stability of antimicrobial activity; assay type: physicochemical; conditions: 2 mg/mL in water, up to 96 h, E. coli ATCC25922, 1 × MIC, Fig. 3D
Procedure: Thermal stability of Hc-3 and hybrid peptides was examined according to the method described in our previous work[31]. Peptide was dissolved in sterile deionized water to a final concentration of 2 mg/mL, and incubated at 37 °C for 0–96 h. At each time point, the bacteria colonies of E. coli ATCC25922 survived 1 × MIC were measured.

trypsin [3] = test: Protease stability, RP-HPLC analysis of degradation; assay type: in vitro ADME
Procedure: To further examine the stability of TIH3F incubated with enzymes (trypsin and protease K) over time, the LC analysis of peptide degradation over a series of time spans (0, 6, 12, 24 h) was performed. TIH3F and protease solution were prepared in 0.1 M NH4HCO3 buffer (pH 8.2) to final molar ratio of 300:1, and incubated at 37 °C for 6, 12, and 24 h, respectively. Then 150 μL aliquots were taken at given time intervals, diluted with 150 μL of water/acetonitrile (60/40 v/v) containing 2% TFA, and analyzed by RP-HPLC (Thermo Scientific Syncronis C18 column, 250 mm × 4.6 mm, 5 μm), eluted with acetonitrile/water (containing 0.1% TFA) mixture of linear gradient concentration.

Raw264.7 cells = test: LPS-induced NO, cytokine and chemokine production (Griess reagent, ELISA); assay type: cell-based, murine; conditions: LPS 100 ng/mL, peptide 5, 10, 20 μg/mL, 24 h, Fig. 6
Procedure: RAW264.7 cells were cultured in DMEM (Gibco, Gaithersburg, USA), containing 10% fetal bovine serum, 100 U/mL streptomycin and 100 U/mL penicillin at 37 °C with 5% CO2, and plated in 24-well plate (1 × 10^6 cells/well). After adhesion, the cells were treated with LPS (100 ng/mL, from E. coli 055:B5, Sigma-Aldrich) in the absence or presence (5, 10, 20 μg/mL) of peptides for 24 h in the same condition. Untreated cells and LPS alone treated cells served as control. The NO was determined using Griess reagent (Beyotime, Jiangsu, China) according to the manufacturer’s protocol. ELISA kits (Joyee, shanghai, china) were used to detect the levels of pro-inflammatory cytokines and chemokines in RAW264.7 cell culture supernatant, including TNF-α, IL-6, IL-1β and MCP-1.

trypsin or proteinase K = conditions: peptide:protease 300/1 mol/mol, 30 min, 37 °C, then 1 × MIC 2 h with E. coli, S. aureus, C. albicans; colony counting; Fig. 3E

CC[C@H](C)[C@@H]1NC(=O)[C@H](CO)NC(=O)[C@H](CCCCN)NC(=O)[C@H]([C@@H](C)O)NC(=O)[C@H](Cc2c[nH]c3ccccc23)NC(=O)[C@@H](N)CSSC[C@@H](C(=O)N[C@@H](CCCCN)C(=O)N[C@@H](Cc2ccccc2)C(=O)N[C@@H](Cc2ccccc2)C(=O)N[C@@H](CCCCN)C(=O)N[C@@H](CCCNC(=N)N)C(=O)N[C@@H](Cc2ccccc2)C(=O)N[C@@H](Cc2ccccc2)C(=O)N[C@@H](CCCCN)C(=O)N[C@@H](CO)C(=O)N[C@@H](Cc2ccccc2)C(=O)N[C@@H](CCCNC(=N)N)C(=O)N[C@@H](CCCNC(=N)N)C(=O)N[C@@H](C)C(=O)N[C@@H](Cc2ccccc2)C(=O)N[C@@H](CCCCN)C(=O)N[C@@H](CCCCN)C(=O)N[C@@H](Cc2ccccc2)C(N)=O)NC(=O)[C@@H]2CCCN2C(=O)[C@H](CCCCN)NC(=O)[C@@H]2CCCN2C(=O)[C@@H]2CCCN2C1=O [TIH3F] (H-CWTKSIPPKPCKFFKRFFKSFRRAFKKF-NH2; disulfide 1-11)
Ki (trypsin [1]): 1500 nM
time of killing toward E. coli (E. coli 08040726; 1xMIC): ≤ 2 h
time of killing toward E. coli (E. coli 08040726; 5xMIC): ≤ 0.5 h
damage of established C. albicans biofilm ([2]; 5 μg/mL, biofilm preformed 72 h, XTT metabolic activity, Fig. 2B): 50%
killing of C. albicans in preformed biofilm ([2]; 50 μg/mL, PI/SYBR Green I staining, fluorescence microscopy, Fig. 2C): destroy all of the cell membranes
antimicrobial activity against E. coli after incubation at pH 1.0–11.0 (E. coli): unaffected
antimicrobial activity after incubation at 37 °C (E. coli ATCC25922): maintained its potent antimicrobial activity
RP-HPLC absorbance of the peptide before trypsin incubation (trypsin [3]; pure peptide, 0 h, C18 RP-HPLC, Fig. 4E): 600 mAU
degradation by trypsin (trypsin [3]; trypsin, 300:1, 0.1 M NH4HCO3 pH 8.2, 37 °C, 6 h, RP-HPLC, Fig. 4): a little degradation
intact peptide remaining after trypsin incubation (trypsin [3]; trypsin, 300:1, 0.1 M NH4HCO3 pH 8.2, 37 °C, up to 24 hours, RP-HPLC, Fig. 4): remained half
RP-HPLC absorbance of the peptide after trypsin incubation (trypsin [3]; trypsin, peptide:protease 300:1, 0.1 M NH4HCO3 pH 8.2, 37 °C, 6 h, C18 RP-HPLC, Fig. 4F): 500 mAU
LPS-induced production of NO, TNF-α, IL-6, IL-1β, MCP-1 (Raw264.7 cells): strongest anti-inflammation effect
antimicrobial activity after treatment with trypsin or proteinase K (trypsin or proteinase K): negligible antimicrobial activity decrease
